# Laboratory results: patent publication US6905836B2, “Methods for identifying compounds that inhibit ubiquitin-mediated proteolysis of iκb” (Yissum Research Development Company of the Hebrew …, priority 2000, dated 2005)
# Residues, ends and D or L forms follow the SMILES beside them. *: point of attachment. Cbz = O=C(OCc1ccccc1)*
# B1: pIκBα: IKK phosphorylated IκBα protein (protein)
# chain: MFQAAERPQEWAMEGPRDGLKKERLLDDRHDSGLDSMKDEEYEQMVKELQEIRLEPQEVPRGSEPWKQQLTEDGDSFLHLAIIHEEKALTMEVIRQVKGDLAFLNFQNNLQQTPLHLAVITNQPEIAEALLGAGCDPELRDFRGNTPLHLACEQGCLASVGVLTQSCTTPHLHSILKATNYNGHTCLHLASIHGYLGIVELLVSLGADVNAQEPCNGRTALHLAVDLQNPDLVSLLLKCGADVNRVTYQGYSPYQLTWGRPSTRIQQQLGQLTLENLQMLPESEDEESYDTESEFTEFTEDELPYDDCVFGGQRLTL
# How the values were obtained:
# [1] = system: Vpu-mediated GFP-CD4 degradation; test: Vpu-mediated CD4 degradation assay (GFP-CD4, tet-off Vpu); assay type: cell-based, human; conditions: 293 cells, pretreatment of transfected cells, Western blotting (FIG. 7C)
# Protocol: The inducible system consists of the tetracycline (Tc)-responsive promoter system developed by Gossen and Bujard (1992). Vpu and GFP-CD4 expression were performed in either HeLa Tet-off gene expression system (CLONTECH). These stably transfected HeLa cells carry the pTet-Off regulator plasmid encoding a tetracycline-controlled transactivator (tTA), which also includes a neomycin-resistance gene. Alternatively 293 cells were transfected with the inducible constructs and the pTet-Off plasmid (Lavon et al., 2000). […]
# The ubiquitin-ligase activity is measured as a function of Vpu-mediated GFP-CD4 degradation (FIG. 7A). […] The N-terminal CD4 sequence, including the first three Ig-like domains (but preserving the CD4 signal sequence), was replaced with the human EGFP sequence for allowing the quantitative measurement of the fusion protein through the GFP fluorescence signal.
# A GFP-CD4 expression plasmid was co-transfected into 293 cells together with expression plasmids for doxycycline (DOX)-regulated HIV-Vpu and tTA (tetracycline transactivator) plasmid. Vpu and GFP-CD4 expression were detected by Western blotting. […]
# E3RS-hnRNP-U complex = target: T1, E3RS-hnRNP-U complex (Homo sapiens, UniProt Q9Y297); test: Dissociation of E3RS from immobilized hnRNP-U by IκBα species; assay type: binding; conditions: anti-hnRNP-U immunobeads from Flag-E3RS transfected 293T cells; Western blot (FIG. 4D)
# T1 construct: expressed in transfected cells; host or cells: 293T cells
# T1 sequence (Q9Y297 1-605): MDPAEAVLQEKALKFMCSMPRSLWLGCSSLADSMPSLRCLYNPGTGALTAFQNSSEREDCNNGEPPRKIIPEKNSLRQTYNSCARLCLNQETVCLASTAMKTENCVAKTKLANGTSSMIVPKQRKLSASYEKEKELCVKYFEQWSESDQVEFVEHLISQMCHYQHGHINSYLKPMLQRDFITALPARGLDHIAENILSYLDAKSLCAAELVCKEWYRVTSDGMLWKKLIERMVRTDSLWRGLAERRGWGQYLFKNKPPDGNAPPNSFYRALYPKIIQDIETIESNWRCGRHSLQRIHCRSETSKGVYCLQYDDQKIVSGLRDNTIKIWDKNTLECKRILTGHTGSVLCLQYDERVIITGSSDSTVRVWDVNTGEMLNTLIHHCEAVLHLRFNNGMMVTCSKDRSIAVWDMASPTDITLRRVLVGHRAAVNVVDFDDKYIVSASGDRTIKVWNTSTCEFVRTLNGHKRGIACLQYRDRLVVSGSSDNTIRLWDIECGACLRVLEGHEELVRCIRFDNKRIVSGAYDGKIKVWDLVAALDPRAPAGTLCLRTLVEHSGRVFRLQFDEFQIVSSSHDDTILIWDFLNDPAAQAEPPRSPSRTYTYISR
# Protocol: Flag-E3RS and endogenous hnRNP-U from 293T cells were used as an E3 source and Flag-WD was used as a negative control. 100 μg protein extract was immunoprecipitated using 2 μl anti-Flag beads or 0.21 μl anti-hnRNP-U antibodies. IκB was phosphorylated by the constitutively-active IκB kinase (IKK2; (Mercurio et al., 1997)) and subjected to binding and ubiquitination assays with each of the above E3 sources, as described previously by (Yaron et al., 1998).
# Next, 293T cells transfected with Flag-E3RS were immunoprecipitated using anti-Flag (lanes 1,2) or anti-hnRNP-U (FIG. 4D, lanes 3-7) antibodies. IκBα (FIG. 4D, lanes 1,3,4) and IKK phosphorylated IκBα (pIκBα; FIG. 4D, lanes 2,5-7) were incubated with the immunobeads, after which, both the immunobeads (slurry (S); FIG. 4D, lanes 1-3,5) and the post-slurry fractions (PS; FIG. 4D, lanes 4,6) were analyzed by Western blot directly, or after immunoprecipitation of the post-slurry fraction (same as in FIG. 4D, lane 6) with anti-Flag beads (FIG. 4D, lane 7).
Molecule,GFP-CD4 signal upon Vpu expression [1],dissociation of E3RS from immobilized hnRNP-U into the post-slurry fraction (E3RS-hnRNP-U complex)
CC(C)C[C@@H](C=O)NC(=O)[C@H](CC(C)C)NC(=O)[C@H](CC(C)C)NC(=O)OCc1ccccc1 [MG132] (Cbz-Leu-Leu-Leu-aldehyde),preservation of the GFP-CD4 signal,–
B1,–,induced the dissociation of the E3RS from the immobilized hnRNP-U
